Measured values: patent US9359634B2, “Fast reaction kinetics of enzymes having low activity in dry chemistry layers” (Roche Diabetes Care, Inc., priority 2009, dated 2016)

Tests used:
[1] = molecular target: T1, wild type glucose dehydrogenase (GlucDH) from Bacillus subtilis (Bacillus subtilis, UniProt P12310, A229V/A236S/Q252K); test: Detection of ternary complexes by NADH fluorescence in the cuvette test; type: binding
Procedure: In order to check the existence of ternary complexes consisting of enzyme, reduced coenzyme and glucose or gluconolactone, experiments on the binding of the analyte based on the fluorescence properties of NADH were carried out in the cuvette test.
For this purpose, 1 mg NADH (Roche Company) was dissolved in 1 ml phosphate buffer and the associated fluorescence spectrum was recorded. Subsequently, 10 mg wild type glucose dehydrogenase (GlucDH) from Bacillus subtilis was added whereupon the complex GlucDH-NADH known from the literature was formed, which complex, due to a considerably longer life time of NADH (3 ns compared to 0.4 ns in the free state), yielded a shifted emission maximum at 450 nm (see FIG. 3).
The lowering of the fluorescence which also corresponds to a shortening of the life time is presumably due to the rapid energy depletion by the redox pair NADH-gluconolactone.

[2] = molecular target: T1, wild type glucose dehydrogenase (GlucDH) from Bacillus subtilis; details: in the complex GlucDH-NADH; cited from earlier work
[3] = molecular target: glucose dehydrogenase from Bacillus subtilis (Bacillus subtilis, UniProt P12310, A229V/A236S/Q252K); type: biochemical; details: dry reagent layer with wild type glucose dehydrogenase, blood applied, presence vs absence of gluconolactone
Chain of glucose dehydrogenase from Bacillus subtilis (P12310 whole entry A229V/A236S/Q252K): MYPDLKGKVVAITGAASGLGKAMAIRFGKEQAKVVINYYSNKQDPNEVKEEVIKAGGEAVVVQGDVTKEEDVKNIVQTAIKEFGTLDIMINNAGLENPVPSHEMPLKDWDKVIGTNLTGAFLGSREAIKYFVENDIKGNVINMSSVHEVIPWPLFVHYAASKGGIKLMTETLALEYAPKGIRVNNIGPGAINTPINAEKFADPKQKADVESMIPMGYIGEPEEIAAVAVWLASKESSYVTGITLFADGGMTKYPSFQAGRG

T1 sequence (P12310 whole entry A229V/A236S/Q252K): as above

Compound | emission maximum ([1]; NADH in the complex GlucDH-NADH, phosphate buffer) | life time of NADH [2] | effect of added gluconolactone on the conversion of glucose [3] | change of fluorescence on titration of the complex GlucDH-NADH ([1]; binary complex GlucDH-NADH titrated with the substance) | emission maximum ([1]; complex GlucDH-NADH after titration with gluconolactone)
NC(=O)C1=CN([C@@H]2O[C@H](COP(=O)(O)OP(=O)(O)OC[C@H]3O[C@@H](n4cnc5c(N)ncnc54)[C@H](O)[C@@H]3O)[C@@H](O)[C@H]2O)C=CC1 [NADH] | 450 nm | 3 ns |  |  | 
O=C1O[C@H](CO)[C@@H](O)[C@H](O)[C@H]1O [gluconolactone] |  |  | considerable slowing down of the conversion | lowered the fluorescence | 427 nm
